In US20100144675A1, “Regulation of sGC Function by Corrin Derivatives” (priority 2007, published 2010):

Assays:
[1] = biological target: T1, recombinant human α1/β1 sGC (Homo sapiens, UniProt Q02108+Q02153); test: cGMP production by purified recombinant sGC (activation by tetrapyrroles); assay type: biochemical; settings: for shift of EC50 of sGC activation in the combination: FIG. 4D/4E; for concentration at which sGC activation is maximal (dose response): dose response of corrins, FIG. 4C
T1 construct: made in house
T1 sequence (Q02108 1-690): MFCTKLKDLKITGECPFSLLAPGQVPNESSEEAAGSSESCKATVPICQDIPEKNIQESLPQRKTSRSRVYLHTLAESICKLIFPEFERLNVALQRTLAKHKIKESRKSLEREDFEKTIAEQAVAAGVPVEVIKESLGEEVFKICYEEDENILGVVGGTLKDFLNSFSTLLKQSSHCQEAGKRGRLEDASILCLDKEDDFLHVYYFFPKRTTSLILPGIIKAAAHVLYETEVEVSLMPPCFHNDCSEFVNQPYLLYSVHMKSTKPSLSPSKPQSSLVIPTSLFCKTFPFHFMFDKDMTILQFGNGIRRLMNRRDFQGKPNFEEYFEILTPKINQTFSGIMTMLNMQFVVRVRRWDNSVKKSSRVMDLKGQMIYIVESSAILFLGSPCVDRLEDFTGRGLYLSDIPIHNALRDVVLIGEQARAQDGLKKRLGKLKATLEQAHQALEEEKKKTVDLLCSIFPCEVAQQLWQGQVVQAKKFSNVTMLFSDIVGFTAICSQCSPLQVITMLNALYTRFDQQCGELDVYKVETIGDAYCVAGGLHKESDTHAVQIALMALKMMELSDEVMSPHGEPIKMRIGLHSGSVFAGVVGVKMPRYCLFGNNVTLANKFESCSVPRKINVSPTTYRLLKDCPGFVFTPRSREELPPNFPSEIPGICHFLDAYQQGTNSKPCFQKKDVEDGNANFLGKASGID
T1 sequence (Q02153 1-619): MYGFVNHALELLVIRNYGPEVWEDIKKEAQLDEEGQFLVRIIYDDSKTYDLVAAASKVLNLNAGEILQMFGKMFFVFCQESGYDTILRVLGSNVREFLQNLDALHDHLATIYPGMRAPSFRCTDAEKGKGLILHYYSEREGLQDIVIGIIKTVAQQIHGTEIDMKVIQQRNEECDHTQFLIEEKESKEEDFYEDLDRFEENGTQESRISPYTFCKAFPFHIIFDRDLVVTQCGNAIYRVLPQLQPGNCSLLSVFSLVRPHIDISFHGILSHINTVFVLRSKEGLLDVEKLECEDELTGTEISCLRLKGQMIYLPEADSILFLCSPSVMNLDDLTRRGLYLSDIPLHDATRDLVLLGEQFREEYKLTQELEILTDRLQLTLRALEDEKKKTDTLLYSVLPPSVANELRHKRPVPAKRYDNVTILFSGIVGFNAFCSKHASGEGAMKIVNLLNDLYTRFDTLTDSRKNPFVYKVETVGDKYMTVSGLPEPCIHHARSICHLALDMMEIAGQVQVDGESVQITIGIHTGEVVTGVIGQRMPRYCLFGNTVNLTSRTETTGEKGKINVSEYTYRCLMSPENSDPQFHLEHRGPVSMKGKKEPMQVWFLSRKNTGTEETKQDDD
Procedure: FIG. 4. Effect of tetrapyrroles on sGC activity in vitro. A. cGMP production by recombinant human α1/β1 sGC induced by 50 μM factor B, bilirubin, nitrite ionophore 1, uroporphyrin I, or protoporphyrin IX. B. cGMP production by recombinant human α1/β1 sGC induced by 50 μM factor B, bilirubin, nitrite ionophore 1, uroporphyrin I, or protoporphyrin IX alone or in the presence of 1 μM BAY41-2272 or HMR1766. C. cGMP production by recombinant al (31 sGC in response to increasing concentration of protoporphyrin, factor B, vitamin B12 and vitamin B12a. D. cGMP production by recombinant human al/131 sGC induced by various doses of factor B at various doses of BAY41-2272. E. cGMP production by recombinant human α1/β1 sGC induced by various doses of factor B at various doses of BAY41-2272.
Activation of purified sGC by various tetrapyrroles. […] Methods of recombinant expression and purification of human α1/β11 isoform of sGC have been developed^23, 24. Measurements of enzymatic activity and multiple spectral studies performed using this recombinant enzyme^10, 23, 25 indicate that these recombinant preparations have identical properties as the native enzyme. We tested a series of tetrapyrrole compounds (FIG. 3), which are structurally related to PPIX. Similar to PPIX, majority of the tested tetrapyrroles contain four pyrrole rings connected to form a microcycle. In the case of billirubin, however, the microcycle is interrupted. […] We then compared fB with vitamin B12 (cyanocobalamine) or its derivative B12a (aquacobalamine) and PPIX, all at 50 μM. […] HMR1766 was kindly provided by Sanofi-Avantis (see a letter attached).

[2] = tested on: rat aortic rings; test: Relaxation of phenylephrine-preconstricted isolated rat aortic rings; assay type: cell-based, Sprague Dawley rats; settings: for vascular relaxation of preconstricted aortic rings: 1 μM phenylephrine preconstriction, cumulative addition
Procedure: FIG. 5. Synergistic effect of corrin derivatives and BAY41-2272 on relaxation of rat aortic rings. The measurements were performed in the presence of corrin derivatives±BAY41-2272 as described in the text. Data are average of two aortic rings per each dose-response curve. Arrow indicates the shift in the effective dose and increased response.
FB-dependent relaxation of isolated rat aorta. In addition to in vitro analysis of sGC activity, we tested whether fB and vitamin B12 derivatives will induce relaxation of preconstricted rat aortic rings. The descending thoracic aorta was excised from freshly sacrificed Sprague Dawley rats, cleaned of adherent tissue and cut into 3-4 mm rings. Each ring was suspended between two wires hooks and mounted under 1 mN of passive tension in 4 ml organ chambers filled with Krebs' solution at 37° C., pH 7.4 and continuously aerated with 95% O2/5% CO2. The changes in isometric tension were measured by a force transducer (Grass Instruments, USA) connected to a PowerLab 400™ data-acquisition system (ADInstruments, Colorado Springs, Mass., USA). Ring preparations were equilibrated for 1 h before the start of the experiments. After the equilibration period, rings were preconstricted with 1 μM phenylephrine and maximal contractile response is determined. After maximal constriction the agonists (vitamin B12, methyl-B12, fB, BAY41-2272) were added cumulatively and changes in isometric tension determined. […] In the presence of a low dose of BAY41-2272 (0.1 μM) EC50 of fB decreased while the response increased.

[3] = tested on: rat aortic rings; test: cGMP levels in treated rat aortic rings; assay type: cell-based; settings: 5 minutes incubation, 37° C., in combination with BAY 41-2272
Procedure: FIG. 7. Changes in cGMP levels in rat aortic rings. Aortic rings were incubated with saline or saline with factor B in the presence or absence of BAY 41-2272 for 5 minutes at 37° C. cGMP was extracted and quantified.
Changes in cGMP levels in isolated rat aorta treated with factor B and BAY 41-2272. In order to confirm that relaxation of blood vessels and decreased blood pressure in response to factor B is dependent on sGC activity we measured cGMP levels in treated aortic rings.

[4] = tested on: anesthetized rats; test: Blood pressure (MAP) and cardiac output in instrumented anesthetized rats; assay type: in vivo, Sprague Dawley rats; settings: for change in blood pressure after bolus: 500 μl bolus into abdominal aorta, fB at 5 and 15 mg/ml or 100 μg/kg BAY41-2272; for change in cardiac output after bolus: 500 μl bolus, data not shown
Procedure: FIG. 6. Effect of factor B and BAY41-2272 on mean arterial pressure (MAP) in instrumented anesthetized rats. Indicated amount of drugs were delivered as a 500 μl bolus through a catheter into the abdominal aorta and MAP were recorded as described in section D1.2. “Contr”—500 μl of saline,
Effect of factor B and BAY41-2272 on blood pressure of anesthetized rats. We also measured the effect of bolus application of fB on changes in hemodynamic parameters in anesthetized rats. Sprague Dawley rats were surgically implanted with a 10-MHz pulsed Doppler flow and a displacement probe around the ascending aorta and sutured to the left ventricular wall, respectively. A Tygon catheter was placed into the abdominal aorta via the femoral artery. After recovery the animals were anesthetized with halothane, intubated, and ventilated under isothermic conditions. Changes in systolic, diastolic, mean arterial pressures and cardiac output were recorded and processed with a multichannel-pulsed Doppler flow/dimension system and digitized (A/D converter). Before experimental treatments with fB and/or BAY41-2272 the animals were treated with a bolus of 30 μg/kg of sodium nitroprusside to confirm the integrity of the catheter and delivery system and the responsiveness of animals to drugs. After the baseline was established a 500 μl bolus of fB at 5 and 15 mg/ml or 100 μg/kg of BAY41-2272 (Alexis, San Diego, Calif., USA) was delivered and the changes in blood pressure (FIG. 6A). and cardiac output were recorded (data not shown).

[5] = tested on: sGC; settings: cited from earlier work
[6] = combination of BAY41-2272 and fB
[7] = in the presence of 0.1 μM BAY41-2272
[8] = fB together with 100 μg/kg BAY41-2272, FIG. 6B

C/C1=C2/[N-]C([C@H](CC(N)=O)[C@@]2(C)CCC(=O)NCC(C)O)[C@]2(C)N=C(/C(C)=C3N=C(/C=C4N=C1[C@@H](CCC(N)=O)C\4(C)C)[C@@H](CCC(N)=O)[C@]\3(C)CC(N)=O)[C@@H](CCC(N)=O)[C@]2(C)CC(N)=O.[C-]#N.[C-]#N.[Co] (some centres unmarked) [factor B, dicyanocobinamide]
sGC activation in combination with HMR1766, FIG. 4B ([1]; 50 μM with 1 μM HMR1766): even more effective than PPIX/HMR1766
sGC activation compared with vitamin B12, B12a and PPIX, FIG. 4B ([1]; all at 50 μM): effective activator of sGC
sGC activation by the combination (synergy) [1, 6]: synergistically enhanced the enzyme
shift of EC50 of sGC activation in the combination [1, 6]: shifted the EC50 to lower concentrations
concentration at which sGC activation is maximal (dose response) [1]: did not reach maximum in the tested range of concentrations
sGC activation (cGMP production), FIG. 4A ([1]; tetrapyrrole alone at 50 μM): significantly activated sGC
vascular relaxation of preconstricted aortic rings [2]: can induce vascular relaxation
EC50 of aortic ring relaxation [2, 7]: decreased
relaxation response [2, 7]: increased
levels of cGMP in aortic rings [3]: increased
change in blood pressure after bolus [4]: Transient decreased in blood pressure
change in cardiac output after bolus [4]: increased cardiac output
baseline to which MAP was restored, versus BAY41-2272 alone ([4]; combined fB/BAY41-2272 treatment, FIG. 6B): even lower and more prolonged
amplitude of drop in blood pressure [4, 8]: enhanced the amplitude of BAY41-2272-induced drop in blood pressure
time of acutely decreased blood pressure [4, 8]: significantly prolonged

cyanocobalamin [vitamin B12, reference compound]
concentration at which sGC activation is maximal (dose response) [1]: 50 µM
vascular relaxation of preconstricted aortic rings [2]: can induce vascular relaxation

Nc1nc(-c2nn(Cc3ccccc3F)c3ncccc23)nc(N)c1N1CCOCC1 [BAY41-2272, reference compound]
shift of EC50 of sGC activation in the combination [1, 6]: shifted the EC50 to lower concentrations
MAP after administration ([4]; 100 μg/kg BAY41-2272 alone): stabilize their MAP at lower values
time lower MAP is maintained ([4]; 100 μg/kg BAY41-2272 alone): at least 30 minutes
change in blood pressure after bolus [4]: Transient decreased in blood pressure
change in cardiac output after bolus [4]: increased cardiac output

C/C1=C2/[N-][C@H]([C@H](CC(N)=O)[C@@]2(C)CCC(=O)NC[C@@H](C)OP(=O)([O-])OC2C(O)[C@@H](n3cnc4cc(C)c(C)cc43)O[C@H]2CO)[C@]2(C)N=C(/C(C)=C3N=C(/C=C4N=C1[C@@H](CCC(N)=O)C\4(C)C)[C@@H](CCC(N)=O)[C@]\3(C)CC(N)=O)[C@@H](CCC(N)=O)[C@]2(C)CC(N)=O.O.[Co+2] (some centres unmarked) [vitamin B12a, aquacobalamine, reference compound]
concentration at which sGC activation is maximal (dose response) [1]: 50 µM

[C-]#[O+] [CO, carbon monoxide]
cGMP produced compared to the resting enzyme ([5]; low-output state): 3-4 time

[N]=O [NO, nitric oxide]
increase in rate of cGMP production ([5]; high-output state): > 100 fold

C/C1=C2/[N-][C@H]([C@H](CC(N)=O)[C@@]2(C)CCC(=O)NC[C@H](C)OP(=O)([O-])O[C@H]2[C@@H](O)[C@@H](n3cnc4cc(C)c(C)cc43)O[C@@H]2CO)[C@]2(C)N=C(/C(C)=C3N=C(/C=C4N=C1[C@@H](CCC(N)=O)C\4(C)C)[C@@H](CCC(N)=O)[C@]\3(C)CC(N)=O)[C@@H](CCC(N)=O)[C@]2(C)CC(N)=O.[CH3-].[Co+3] [methyl-B12, methylcobalamin, reference compound]
vascular relaxation of preconstricted aortic rings [2]: can induce vascular relaxation
